From patent US20200000816A1, “COMPOUND HAVING SOMATOSTATIN RECEPTOR AGONISTIC ACTIVITY AND PHARMACEUTICAL USE THEREOF” (ONO PHARMACEUTICAL CO., LTD., priority 2017, published 2020) come the findings set out here.

In general, IC50 refers to the concentration at which inhibition is half-maximal. A word on the EC50: it is the concentration giving half of the maximal effect. Higher therefore signals weaker potency. For orientation: inhibition in vivo means how much of the control response was suppressed.

A value given as a limit tells only on which side of the number the result lay.

In one data set the target is T1, hERG K+ channel (Homo sapiens, UniProt Q12809).
T1 construct: expressed in transfected cells; host or cells: CHO-K1
T1 sequence (Q12809 whole entry): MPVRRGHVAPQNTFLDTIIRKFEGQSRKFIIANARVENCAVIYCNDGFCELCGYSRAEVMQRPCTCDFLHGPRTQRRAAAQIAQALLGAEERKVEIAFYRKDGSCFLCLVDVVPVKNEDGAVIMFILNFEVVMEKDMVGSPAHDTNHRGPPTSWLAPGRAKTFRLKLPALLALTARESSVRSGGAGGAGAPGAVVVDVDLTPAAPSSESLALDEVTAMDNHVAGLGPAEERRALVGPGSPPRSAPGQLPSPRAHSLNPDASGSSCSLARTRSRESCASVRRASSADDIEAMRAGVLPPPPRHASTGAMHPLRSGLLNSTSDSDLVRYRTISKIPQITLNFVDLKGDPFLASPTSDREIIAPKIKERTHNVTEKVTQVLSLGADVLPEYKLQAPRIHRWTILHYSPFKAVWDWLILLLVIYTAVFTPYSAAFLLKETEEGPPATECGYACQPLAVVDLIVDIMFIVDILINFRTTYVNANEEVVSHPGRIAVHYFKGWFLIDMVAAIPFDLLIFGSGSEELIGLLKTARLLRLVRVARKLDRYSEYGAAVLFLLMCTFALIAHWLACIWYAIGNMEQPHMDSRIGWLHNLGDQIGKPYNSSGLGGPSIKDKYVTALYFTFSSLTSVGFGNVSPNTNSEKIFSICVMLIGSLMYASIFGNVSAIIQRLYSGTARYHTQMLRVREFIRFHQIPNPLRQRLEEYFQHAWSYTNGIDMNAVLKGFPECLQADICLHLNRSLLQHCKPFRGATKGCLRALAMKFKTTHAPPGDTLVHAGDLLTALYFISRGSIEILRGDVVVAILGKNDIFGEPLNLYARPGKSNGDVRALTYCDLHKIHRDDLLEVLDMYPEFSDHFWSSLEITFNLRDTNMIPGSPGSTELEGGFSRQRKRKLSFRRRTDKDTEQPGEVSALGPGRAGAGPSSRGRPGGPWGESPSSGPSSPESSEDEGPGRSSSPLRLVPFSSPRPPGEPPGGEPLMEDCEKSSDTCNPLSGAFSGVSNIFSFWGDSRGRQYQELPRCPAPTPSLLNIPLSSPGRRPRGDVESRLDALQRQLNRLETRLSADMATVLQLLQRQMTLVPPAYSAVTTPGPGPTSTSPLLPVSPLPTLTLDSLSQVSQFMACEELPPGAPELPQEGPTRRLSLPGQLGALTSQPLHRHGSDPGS
The experiment in a line: Evaluation of hERG K+ channel inhibitory activity using cells expressing human ERG (automated patch-clamp, CHO-K1). To be noted: CHO-K1 cells with human ERG gene, tested at 1, 3 and 10 μmol/L, 5-minute incubation. Type of data set: cell-based. As to the method:
Evaluation of hERG K^+ Channel Inhibitory Activity Using Cells Expressing Human ERG
CHO-K1 cells having the human ERG gene (ether-a-go-go related gene) introduced therein were subcultured in an F-12 medium [F-12 Nutrient Mixture (HAM)] containing 10% inactivated foetal bovine serum, 100 IU/mL penicillin-100 μg/mL streptomycin and 200 μg/mL geneticin.
Patch-clamp was performed in a full-automated manner using CHO-K1 cells having the human ERG gene introduced therein and having a perforated patch formed therein with amphotericin B. For the experiment, a 384-well PatchPlate™ was used and the cell suspension and compounds were added thereto. The IKr current was measured with command voltages of holding potential of −80 mV, depolarization potential of +40 mV (2 seconds) and repolarization potential of −50 mV (2 seconds). The stimulation frequency was twice (single pulse stimulations) before and after the treatment with a drug (the concentrations of a compound for evaluation were 1, 3 and 10 μmol/L, a 5-minute incubation), and the Ikr maximum current was measured. The inhibition (%) on the CHO-K1 cells having the human ERG gene introduced therein was determined by correcting the variation in the maximum tail current before and after addition of the test substance by the variation thereof in the group treated with a medium (inhibition (%)=(1-variation in current before and after addition of a test substance/variation in current before and after addition of a medium)×100). The 50% inhibitory concentration (IC50 value) was calculated from a line connecting two points on both sides of the inhibition of 50%.
A general note: The hERG channel carries a current that helps repolarise heart muscle cells.

The target of a further data set is T2, human SSTR2 (Homo sapiens, UniProt P30874).
T2 construct: Myc; expressed in transfected cells
T2 sequence (P30874 whole entry): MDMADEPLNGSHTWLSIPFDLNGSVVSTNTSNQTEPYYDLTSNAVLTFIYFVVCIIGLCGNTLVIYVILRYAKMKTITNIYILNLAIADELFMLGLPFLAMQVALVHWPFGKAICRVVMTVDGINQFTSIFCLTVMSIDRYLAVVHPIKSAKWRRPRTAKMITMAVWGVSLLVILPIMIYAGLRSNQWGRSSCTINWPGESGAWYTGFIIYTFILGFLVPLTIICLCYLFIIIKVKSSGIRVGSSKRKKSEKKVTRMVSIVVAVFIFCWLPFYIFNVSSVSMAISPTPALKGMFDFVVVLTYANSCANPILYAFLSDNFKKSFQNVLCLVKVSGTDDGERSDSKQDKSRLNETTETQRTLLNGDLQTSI
As to the kind of experiment: Evaluation of SSTR2 agonistic activity using cells expressing human SSTR2 (suppression of forskolin-stimulated cAMP production, SSTR2-CHO-K1). To be noted: suppression of cAMP production by forskolin stimulation, 1000 nmol/L octreotide = 100%. In kind it is cell-based. On the technique in general: Changes in cAMP serve as a functional read-out for many G protein-coupled receptors.

Data set [1] has as its system Chinese hamster lung-derived CHL/IU cells. As to the kind of experiment: Evaluation of phospholipidosis induction ability using cultured cell line (NBD-PE incorporation). The following applies: 24 hours, positive = 25% or more of amiodarone maximum reaction at cell viability 50% or more; for phospholipidosis induction ability (judgement): 6.25-100 μmol/L. Type of data set: cell-based. As to the method:
Chinese hamster lung-derived CHL/IU cells were suspended in an MEM-E culture solution containing non-essential amino acids, sodium pyruvate and 10% foetal bovine serum and seeded in a 96-well plate. The cells cultured overnight in an incubator (5% carbon dioxide, 95% air, 37° C.) were further cultured for 24 hours after replacing the culture solution with a culture solution containing 6.25, 12.5, 25, 50 or 100 μmol/L of a test substance and NBD-PE (fluorescence label N-(7-nitrobenz-2-oxa-1,3-diazol-4-yl)-1,2-dihexadecanoyl-sn-glycero-3-phosphoethanolamine triethylammonium salt) obtained from Molecular Probes. The phospholipidosis induction ability was evaluated by measuring the concentration of NBD-PE incorporated into the cells. Specifically, the cells were washed twice with PBS and then measured for the fluorescence of NBD-PE (excitation wavelength: 485 nm, fluorescence wavelength: 535 nm) incorporated in the cells on a SpectraMax plate reader available from Molecular Devices, LLC. for evaluation. After measurement of the fluorescence of NBD-PE, the cell viability was evaluated with Premix WST-1 Cell Proliferation Assay System available from TaKaRa Bio Inc. The phospholipidosis induction ability was judged to be positive when, at a dose that provided a cell viability of 50% or more, the reaction (the concentration of NBD-PE incorporated after administration of a test substance) was 25% or more of the maximum reaction of a positive control amiodarone (the concentration of NBD-PE incorporated into the cells after administration of amiodarone was regarded as 100%).

The test system of another data set is GH secretion. The experiment in a line: Evaluation of suppression of growth hormone (GH) secretion using rats (GHRH-induced). The following applies: Rattus norvegicus, 5 min, oral, dosage of 1 mg/kg, GHRH given 8 hours after dosing, blood GH 5 minutes after GHRH. Type of data set: in vivo. The method, then:
A medium (distilled water (Otsuka distilled water, Otsuka Pharmaceutical Factory, Inc.)) or a test compound dissolved in the medium was orally administered to rats (7-week old male Crl:CD(SD) IGS rats (Charles River Laboratories Japan, Inc.)) and after 7 hours and 57 minutes, the animals were administered with 50 mg/kg of pentobarbital sodium (Somnopentyl, Kyoritsu Seiyaku Corporation) via the tail vein for anaesthesia. Three minutes after administration of pentobarbital sodium, the rats were administered with 0.01 mg/kg of growth hormone-releasing hormone (GHRH, Bachem) via the tail vein to induce GH secretion. In order to measure the blood GH concentration, 0.2 mL of blood was collected through the jugular vein at 5 minutes after administration of GHRH. The collected blood was centrifuged at 4° C., 13,000×g for 5 minutes to obtain plasma. The blood GH concentration was measured by using Rat/Mouse Growth Hormone ELISA (Millipore) following the instruction of the kit. The percentage (%) of suppression of GH secretion was determined by using the obtained blood GH concentration and the equation {[suppression (%) of GH secretion]=([blood GH concentration of the group administered with the medium]−[blood GH concentration of the group administered with a test compound])/[blood GH concentration of the group administered with the medium]×100}. In the equation, the group administered with the medium represents the group of animals administered with the medium and the group administered with a test compound represents the group of animals administered with a test compound dissolved in the medium.

In turn, `O[C@H]1CN(c2c(-c3cc(F)cc(F)c3)cncc2-c2nc3cc(F)c(F)cc3[nH]2)CC[C@H]1NC1COC1` [Example 5, (3S,4R)-1-[3-(5,6-difluoro-1H-benzimidazol-2-yl)-5-(3,5-difluorophenyl)-4-pyridinyl]-4-(3-oxetanylamino)-3-piperidinol] had an IC50 at hERG K+ channel of 7600 nM. For the same compound, the EC50 on human SSTR2 came out at 0.14 nM. Also, in data set [1], the “phospholipidosis induction ability (judgement)” value was “negative”. Also, the inhibition in vivo at 1 mg/kg with GH secretion came out at 92%.
Take `COc1ccc2nc(-c3cncc(-c4cc(F)ccc4F)c3N3CC[C@@H](N)[C@@H](O)C3)[nH]c2c1` [Example 4(15), (3S,4R)-4-amino-1-[3-(2,5-difluorophenyl)-5-(6-methoxy-1H-benzimidazol-2-yl)-4-pyridinyl]-3-piperidinol]: at hERG K+ channel, the IC50 worked out at 9100 nM. The compound also had an EC50 on human SSTR2 of 0.012 nM. In data set [1], the “concentration at which judged to be positive in phospholipidosis induction ability” value (shortened to “concentration at which judged”) was determined as 25 µM.
As to `COC(=O)c1cc(F)cc2nc(-c3c(N4CCOCC4)ncc(-c4cc(F)cc(F)c4)c3N3CC[C@@H](N)[C@@H](O)C3)[nH]c12` [Example 6, Methyl 2-{4-[(3S,4R)-4-amino-3-hydroxy-1-piperidinyl]-5-(3,5-difluorophenyl)-2-(4-morpholinyl)-3-pyridinyl}-5-fluoro-1H-benzimidazole-7-carboxylate], inhibition against hERG K+ channel was half-maximal at 4400 nM (IC50). For the same compound, the EC50 on human SSTR2 is 0.081 nM. The “concentration at which judged” value in data set [1] stood at 50 µM.
In the case of `Cn1cc(-c2ncc(-c3cc(F)cc(F)c3)c(N3CC[C@@H](N)[C@@H](O)C3)c2-c2nc3cc(F)c(F)cc3[nH]2)cn1` [Example 1(2), (3S,4R)-4-amino-1-[3-(5,6-difluoro-1H-benzimidazol-2-yl)-5-(3,5-difluorophenyl)-2-(1-methyl-1H-pyrazol-4-yl)-4-pyridinyl]-3-piperidinol], the IC50 on hERG K+ channel was ≥ 10000 nM. The compound further showed a half-maximal effective concentration (EC50) on human SSTR2 of 0.032 nM. Besides, the “phospholipidosis induction ability (judgement)” value in data set [1] is recorded as “negative”.
On hERG K+ channel, `CCN[C@@H]1CCN(c2c(-c3cc(F)cc(F)c3)cnc(C)c2-c2nc3cc(F)c(F)c(F)c3[nH]2)C[C@@H]1O` [Example 3(15), (3S,4R)-1-[5-(3,5-difluorophenyl)-2-methyl-3-(5,6,7-trifluoro-1H-benzimidazol-2-yl)-4-pyridinyl]-4-(ethylamino)-3-piperidinol] showed an IC50 of 5800 nM. Also, it took 0.47 nM to reach a half-maximal effect on human SSTR2 (EC50). Besides, in the data set with GH secretion, the inhibition in vivo at 1 mg/kg was 66%.
With `COc1ccc2nc(-c3c(C)ncc(-c4cc(F)cc(Cl)c4)c3N3CC[C@@H](NC4COC4)[C@@H](O)C3)[nH]c2c1` [Example 3, (3S,4R)-1-[5-(3-chloro-5-fluorophenyl)-3-(6-methoxy-1H-benzimidazol-2-yl)-2-methyl-4-pyridinyl]-4-(3-oxetanylamino)-3-piperidinol], the IC50 at hERG K+ channel was ≥ 10000 nM. For the same compound, the 50% effective concentration (EC50) at human SSTR2 amounted to 0.027 nM. Further, the “phospholipidosis induction ability (judgement)” value in data set [1] was “negative”.
`Cc1ncc(-c2cc(F)cc(F)c2)c(N2CC[C@@H](N)[C@@H](O)C2)c1-c1nc2cc(F)c(F)c(F)c2[nH]1` [Example 2(13), (3S,4R)-4-amino-1-[5-(3,5-difluorophenyl)-2-methyl-3-(5,6,7-trifluoro-1H-benzimidazol-2-yl)-4-pyridinyl]-3-piperidinol]: the half-maximal inhibitory concentration (IC50) on hERG K+ channel is ≥ 10000 nM. Besides, the concentration giving a half-maximal response (EC50) at human SSTR2 was 0.017 nM.
Regarding `COc1cc(F)cc(-c2cncc(-c3nc4cc(F)c(F)cc4[nH]3)c2N2CC[C@@H](NCCC(F)(F)F)[C@@H](O)C2)c1` [Example 5(5), (3S,4R)-1-[3-(5,6-difluoro-1H-benzimidazol-2-yl)-5-(3-fluoro-5-methoxyphenyl)-4-pyridinyl]-4-[(3,3,3-trifluoropropyl)amino]-3-piperidinol], the IC50 at hERG K+ channel is ≥ 10000 nM. The EC50 at human SSTR2 was 0.42 nM. Also, the “phospholipidosis induction ability (judgement)” value in data set [1] is recorded as “negative”.
Consider `CCN[C@@H]1CCN(c2c(-c3cc(F)cc(F)c3)cnc(C)c2-c2nc3cc(F)c(OC)cc3[nH]2)C[C@@H]1O` [Example 3(4), (3S,4R)-1-[5-(3,5-difluorophenyl)-3-(5-fluoro-6-methoxy-1H-benzimidazol-2-yl)-2-methyl-4-pyridinyl]-4-(ethylamino)-3-piperidinol], for which, at hERG K+ channel, the IC50 is ≥ 10000 nM. Further, a half-maximal effect at human SSTR2 (EC50) was put at 0.056 nM. In the data set on GH secretion, the inhibition in vivo at 1 mg/kg stood at 71%.
`COC(=O)c1cc(F)cc2nc(-c3c(C)ncc(-c4cc(F)ccc4F)c3N3CC[C@@H](N)[C@@H](O)C3)[nH]c12` [Example 2(12), Methyl 2-{4-[(3S,4R)-4-amino-3-hydroxy-1-piperidinyl]-5-(2,5-difluorophenyl)-2-methyl-3-pyridinyl}-5-fluoro-1H-benzimidazole-7-carboxylate] showed an IC50 against hERG K+ channel of 9400 nM. Also, the midpoint of the response at human SSTR2, the EC50, lay at 0.016 nM.
For `COc1cc2nc(-c3cncc(-c4cc(F)cc(F)c4)c3N3CC[C@@H](NCCC(F)(F)F)[C@@H](O)C3)[nH]c2cc1F` [Example 5(6), (3S,4R)-1-[3-(3,5-difluorophenyl)-5-(6-fluoro-5-methoxy-1H-benzimidazol-2-yl)-4-pyridinyl]-4-[(3,3,3-trifluoropropyl)amino]-3-piperidinol], the IC50 at hERG K+ channel is ≥ 10000 nM. The midpoint of the response at human SSTR2, the EC50, lay at 0.067 nM. The “phospholipidosis induction ability (judgement)” value in data set [1] was “negative”. For the same compound, testing at 1 mg/kg in the data set on GH secretion gave an inhibition in vivo of 83%.
Consider `N[C@@H]1CCN(c2c(-c3cc(F)cc(F)c3)cncc2-c2nc3ccccc3[nH]2)C[C@@H]1O` [Example 4(4), (3S,4R)-4-amino-1-[3-(1H-benzimidazol-2-yl)-5-(3,5-difluorophenyl)-4-pyridinyl]-3-piperidinol], for which, on hERG K+ channel, the concentration for half-maximal inhibition (IC50) was determined as 6700 nM. For the same compound, the EC50 on human SSTR2 was 0.0093 nM. Further, the “concentration at which judged” value in data set [1] was 25 µM.
For the compound `O[C@H]1CN(c2c(-c3cc(F)cc(Cl)c3)cncc2-c2nc3cc(F)c(F)cc3[nH]2)CC[C@H]1NCCC(F)(F)F` [Example 5(3), (3S,4R)-1-[3-(3-chloro-5-fluorophenyl)-5-(5,6-difluoro-1H-benzimidazol-2-yl)-4-pyridinyl]-4-[(3,3,3-trifluoropropyl)amino]-3-piperidinol], on hERG K+ channel, the half-inhibitory concentration (IC50) was ≥ 10000 nM. Also, the EC50 at human SSTR2 is 0.28 nM. Further, the “phospholipidosis induction ability (judgement)” value in data set [1] is given as “negative”.
At hERG K+ channel, `N[C@@H]1CCN(c2c(-c3cc(F)cc(F)c3)cncc2-c2nc3cc(F)c(F)cc3[nH]2)C[C@@H]1O` [Example 4, (3S,4R)-4-amino-1-[3-(5,6-difluoro-1H-benzimidazol-2-yl)-5-(3,5-difluorophenyl)-4-pyridinyl]-3-piperidinol] gave an IC50 of 6900 nM. In addition, the EC50 on human SSTR2 was 0.015 nM. For the same compound, the “concentration at which judged” value in data set [1] was ≥ 12.5 µM.
